From patent publication US20090118286A1, “Heterobicyclic Acrylamides” (Bayer Cropscience AG, priority 2005, published 2009)
Values belong to the compound of their own block, whether it stands above or below them.

Assay: log P determination by HPLC (EEC Directive 79/831 Annex V.A8, gradient method)
Type: physicochemical

- Physical data (logP): 3.46
Structure (SMILES): COCC(C)NC(=O)/C=C/c1c(-c2cccc(Cl)c2)nc2sc(C(F)(F)F)nn12 (stereo not shown) [Example 0089]

- Physical data: log P: 4.27
Structure (SMILES): CC(NC(=O)/C=C/c1c(-c2cccc(C(F)(F)F)c2)nc2sc(C(F)(F)F)nn12)C(F)(F)F (stereo not shown) [Example 0388]

- Physical data: log P: 3.81
Structure (SMILES): CCC(CC)NC(=O)/C=C/c1c(-c2ccc(F)cc2)nc2sc(C(F)(F)F)nn12 [Example 0357]

- Physical data: logP: 3.03
Structure (SMILES): COc1ccc(-c2nc3sc(C(F)(F)F)nn3c2/C=C/C(=O)NC2CCC2)cc1OC [Example 0657]

- Physical data (logP): 2.93
Structure (SMILES): O=C(O)/C=C/c1c(-c2ccccc2Cl)nc2sc(C(F)(F)Cl)nn12 [VA-24]

- Physical data: logP: 4.71
Structure (SMILES): O=C(C=Cc1c(-c2ccccc2Cl)nc2sc(C(F)(F)F)nn12)NC(c1ccc(Cl)cc1)C(F)(F)F (stereo not shown) [Example 0919]

- Physical data: logP: 3.82
Structure (SMILES): CC(C)NC(=O)/C=C/c1c(-c2ccccc2Cl)nc2sc(Br)cn12 [Example 0908]

- Physical data: logP: 2.84
Structure (SMILES): Cc1csc2nc(-c3ccccc3Cl)c(/C=C/C(=O)NC(C)C(C)(C)C)n12 (stereo not shown) [Example 0892]

- Physical data: logP: 4.72
Structure (SMILES): CC(C)(C)c1nn2c(/C=C/C(=O)Nc3ccc(Cl)cc3)c(-c3ccccc3Cl)nc2s1 [Example 0811]

- Physical data: log P: 3.59
Structure (SMILES): O=C(/C=C/c1c(-c2cccc(C(F)(F)F)c2)nc2sc(C(F)(F)F)nn12)NC1CC1 [Example 0375]

- Physical data (logP): 5.31
Structure (SMILES): CCC(NC(=O)/C=C/c1c(-c2ccc(Cl)cc2)nc2sc(C(F)(F)F)nn12)C1CCCCC1 (stereo not shown) [Example 0045]

- Physical data: logP: 4.33
Structure (SMILES): CCC(C)NC(=O)/C=C/c1c(-c2ccccc2Cl)nc2sc(-c3ccc(C(F)(F)F)cc3)nn12 (stereo not shown) [Example 0847]

- Physical data: log P: 4.18
Structure (SMILES): CCC(C)NC(=O)/C=C/c1c(-c2cccc(C(F)(F)F)c2)nc2sc(C(F)(F)F)nn12 (stereo not shown) [Example 0380]

- Physical data: logP: 4.37
Structure (SMILES): CC(NC(=O)/C=C/c1c(-c2ccccc2Cl)nc2sc(-c3ccc(C(F)(F)F)cc3)nn12)C(F)(F)F (stereo not shown) [Example 0839]

- Physical data: logP: 2.48
Structure (SMILES): Cc1cn2c(/C=C/C(=O)NC3CCC3)c(-c3ccccc3Cl)nc2s1 [Example 0874]

- Physical data: logP: 2.09
Structure (SMILES): Cc1csc2nc(-c3ccccc3Cl)c(/C=C/C(=O)NC(C)C)n12 [Example 0890]

- Physical data (logP): 4.0
Structure (SMILES): C=CCN(C)C(=O)/C=C/c1c(-c2cccc(Cl)c2)nc2sc(C(F)(F)F)nn12 [Example 0137]

- Physical data: logP: 3.48
Structure (SMILES): CC(C)C(NC(=O)C=Cc1c(-c2cccnc2Cl)nc2sc(C(F)(F)F)nn12)C(F)(F)F (stereo not shown) [Example 0949]

- Physical data: logP: 3.67
Structure (SMILES): CCC(C)NC(=O)/C=C/c1c(-c2ccccc2Cl)nc2sc(C(C)(C)C)nn12 (stereo not shown) [Example 0803]

- Physical data: logP: 2.7
Structure (SMILES): COCC(C)NC(=O)/C=C/c1c(-c2ccc(OC)c(OC)c2)nc2sc(C(F)(F)F)nn12 (stereo not shown) [Example 0663]

- Physical data: logP: 3.72
Structure (SMILES): COc1ccc(-c2nc3sc(C(F)(F)F)nn3c2/C=C/C(=O)NC(C)COc2ccccc2)cc1OC (stereo not shown) [Example 0689]

- Physical data (logP): 3.7
Structure (SMILES): O=C(/C=C/c1c(-c2ccccc2Cl)nc2sc(C(F)(F)F)nn12)NCc1ccc(F)cc1 [Example 0191]

- Physical data (logP): 2.88
Structure (SMILES): CNC(=O)/C=C/c1c(-c2ccc(Cl)cc2)nc2sc(C(F)(F)F)nn12 [Example 0005]

- Physical data: logP: 2.58
Structure (SMILES): COc1ccc(-c2nc3sc(C(F)(F)F)nn3c2/C=C/C(=O)N2CCOCC2)cc1OC [Example 0718]

- Physical data (logP): 2.43
Structure (SMILES): COc1ccc(-c2nc3sc(C(F)(F)F)nn3c2/C=C/C(=O)O)cc1OC [VA-10]

- Physical data: logP: 4.06
Structure (SMILES): CC(C)(C)CNC(=O)/C=C/c1c(-c2ccccc2Cl)nc2sc(C(C)(C)C)nn12 [Example 0797]

- Physical data: logP: 3.75
Structure (SMILES): O=C(/C=C/c1c(-c2ccc(F)cc2Cl)nc2sc(C(F)(F)F)nn12)NCCCC(F)(F)F [Example 0912]

- Physical data: logP: 3.88
Structure (SMILES): Cc1cn2c(/C=C/C(=O)Nc3ccc(C(F)(F)F)cc3)c(-c3ccccc3Cl)nc2s1 [Example 0879]

- Physical data: log P: 3.55
Structure (SMILES): CCC(C)NC(=O)/C=C/c1c(-c2ccc(F)cc2)nc2sc(C(F)(F)F)nn12 (stereo not shown) [Example 0309]

- Physical data: logP: 2.95
Structure (SMILES): COc1ccc(-c2nc3sc(C(F)(F)F)nn3c2/C=C/C(=O)NCC2CC2)cc1OC [Example 0660]

- Physical data: log P: 3.81
Structure (SMILES): CC(C)C(C)NC(=O)/C=C/c1c(-c2ccc(F)cc2)nc2sc(C(F)(F)F)nn12 (stereo not shown) [Example 0316]

- Physical data: logP: 3.81
Structure (SMILES): CC(NC(=O)/C=C/c1c(-c2nccs2)nc2sc(C(F)(F)C(F)(F)F)nn12)C(F)(F)F (racemic) [Example 0987]

- Physical data (logP): 3.67
Structure (SMILES): CC(C)NC(=O)/C=C/c1c(-c2cccc(Cl)c2)nc2sc(C(F)(F)F)nn12 [Example 0078]

- Physical data: logP: 4.07
Structure (SMILES): CC(NC(=O)/C=C/c1c(-c2ccccc2Cl)nc2sc(C(F)(F)C(F)(F)F)nn12)C(F)(F)F (racemic) [Example 0961]

- Physical data: log P: 2.84
Structure (SMILES): CC(NC(=O)/C=C/c1c(-c2ccc(Cl)cc2Cl)nc2sc(C(F)(F)F)nn12)c1ccccn1 (stereo not shown) [Example 0555]

- Physical data: logP: 3.5
Structure (SMILES): COc1ccc(-c2nc3sc(C(F)(F)F)nn3c2/C=C/C(=O)NC(C)c2ccccc2)cc1OC (stereo not shown) [Example 0683]

- Physical data: logP: 3.37
Structure (SMILES): CCC(CC)NC(=O)/C=C/c1c(-c2ccc(OC)c(OC)c2)nc2sc(C(F)(F)F)nn12 [Example 0710]

- Physical data: logP: 5.13
Structure (SMILES): CC(C)(C)c1nn2c(/C=C/C(=O)Nc3ccc(OC(F)(F)F)cc3)c(-c3ccccc3Cl)nc2s1 [Example 0812]

- Physical data: logP: 4.21
Structure (SMILES): O=C(/C=C/c1c(-c2ccccc2Cl)nc2sc(-c3ccc(C(F)(F)F)cc3)nn12)NC1CCC1 [Example 0852]

- Physical data: log P: 4.0
Structure (SMILES): C=CCN(C)C(=O)/C=C/c1c(-c2ccc(Cl)cc2Cl)nc2sc(C(F)(F)F)nn12 [Example 0570]

- Physical data: log P: 3.85
Structure (SMILES): Cc1ccccc1-c1nc2sc(C(F)(F)F)nn2c1/C=C/C(=O)N1CCCCC1 [Example 0293]

- Physical data (logP): 2.97
Structure (SMILES): O=C(O)/C=C/c1c(-c2nccs2)nc2sc(C(F)(F)C(F)(F)F)nn12 [VA116]

- Physical data: log P: 4.12
Structure (SMILES): O=C(C=Cc1c(-c2ccc(F)cc2Cl)nc2sc(C(F)(F)F)nn12)NC1CCCCC1C(F)(F)F (stereo not shown) [Example 0600]

- Physical data: log P: 4.03
Structure (SMILES): Cc1ccccc1-c1nc2sc(C(F)(F)F)nn2c1/C=C/C(=O)NC1CCCCC1 [Example 0236]

- Physical data: logP: 3.29
Structure (SMILES): COc1ccc(-c2nc3sc(C(F)(F)F)nn3c2/C=C/C(=O)NC(C)C(F)(F)F)cc1OC (stereo not shown) [Example 0669]

- Physical data: log P: 2.91
Structure (SMILES): Cc1ccccc1-c1nc2sc(C(F)(F)F)nn2c1/C=C/C(=O)N1CCOCC1 [Example 0294]

- Physical data: logP: 2.64
Structure (SMILES): Cc1cn2c(/C=C/C(=O)NCC(F)(F)F)c(-c3ccccc3Cl)nc2s1 [Example 0866]

- Physical data (logP): 3.77
Structure (SMILES): O=C(O)/C=C/c1c(-c2ccc(-c3ccccc3)cc2)nc2sc(C(F)(F)F)nn12 [VA120]

- Physical data: logP: 2.85
Structure (SMILES): Cc1cn2c(/C=C/C(=O)NC(C)C(F)(F)F)c(-c3ccccc3Cl)nc2s1 (stereo not shown) [Example 0861]

- Physical data: logP: 3.71
Structure (SMILES): O=C(/C=C/c1c(-c2ccc(F)cc2Cl)nc2sc(C(F)(F)F)nn12)NC1(C(F)(F)F)CC1 [Example 0913]

- Physical data: logP: 3.75
Structure (SMILES): O=C(/C=C/c1c(-c2ccccc2Cl)nc2sc(-c3ccc(C(F)(F)F)cc3)nn12)NC1CC1 [Example 0851]

- Physical data (logP): 2.75
Structure (SMILES): O=C(O)/C=C/c1c(-c2ccc(F)cc2)nc2sc(C(F)(F)F)nn12 [VA-6]

- Physical data: log P: 3.8
Structure (SMILES): CON(C)C(=O)/C=C/c1c(-c2ccc(Cl)cc2Cl)nc2sc(C(F)(F)F)nn12 [Example 0572]

- Physical data (logP): 2.62
Structure (SMILES): NC(=O)/C=C/c1c(-c2ccc(Cl)cc2)nc2sc(C(F)(F)F)nn12 [Example 0004]

- Physical data (logP): 4.37
Structure (SMILES): CC(NC(=O)/C=C/c1c(-c2cccc(Cl)c2)nc2sc(C(F)(F)F)nn12)c1ccccc1 (stereo not shown) [Example 0108]

- Physical data (logP): 3.42
Structure (SMILES): CN(C)C(=O)/C=C/c1c(-c2ccc(Cl)cc2)nc2sc(C(F)(F)F)nn12 [Example 0065]

- Physical data (logP): 4.46
Structure (SMILES): O=C(/C=C/c1c(-c2cccc(Cl)c2)nc2sc(C(F)(F)F)nn12)NC1CCCCC1 [Example 0085]

- Physical data: log P: 2.45
Structure (SMILES): CC(NC(=O)/C=C/c1c(-c2ccc(F)cc2)nc2sc(C(F)(F)F)nn12)c1ccccn1 (stereo not shown) [Example 0345]

- Physical data: logP: 3.04
Structure (SMILES): Cc1csc2nc(-c3ccccc3Cl)c(/C=C/C(=O)NC3CCC(C(F)(F)F)CC3)n12 (stereo not shown) [Example 0887]

- Physical data (logP): 3.77
Structure (SMILES): CC(NC(=O)/C=C/c1c(-c2ccccc2Cl)nc2sc(C(F)(F)F)nn12)C(F)(F)F (single isomer, unassigned) [Example 0185]

- Physical data: log P: 4.18
Structure (SMILES): CCC(NC(=O)C=Cc1c(-c2ccccc2C)nc2sc(C(F)(F)F)nn12)c1ccccc1 (stereo not shown) [Example 0261]

- Physical data: logP: 4.34
Structure (SMILES): O=C(C=Cc1c(-c2ccccc2Cl)nc2sc(C(F)(F)F)nn12)NC(c1ccc(F)cc1)C(F)(F)F (stereo not shown) [Example 0918]

- Physical data (logP): 1.79
Structure (SMILES): O=Cc1c(-c2ccccc2Cl)nc2scnn12 [IVA110]

- Physical data: logP: 3.17
Structure (SMILES): Cc1cn2c(/C=C/C(=O)NC(C)C(C)(C)C)c(-c3ccccc3Cl)nc2s1 (stereo not shown) [Example 0870]

- Physical data (logP): 4.31
Structure (SMILES): O=C(/C=C/c1c(-c2ccc(Cl)cc2)nc2sc(C(F)(F)F)nn12)N1CCCCC1 [Example 0071]

- Physical data: log P: 3.81
Structure (SMILES): CC(ONC(=O)/C=C/c1c(-c2ccc(F)cc2)nc2sc(C(F)(F)F)nn12)c1ccccc1 (stereo not shown) [Example 0355]

- Physical data: logP: 2.2
Structure (SMILES): COCc1nn2c(/C=C/C(=O)NC3CC3)c(-c3ccccc3Cl)nc2s1 [Example 0829]

- Physical data: logP: 3.5
Structure (SMILES): CCCC(C)NC(=O)/C=C/c1c(-c2ccc(OC)c(OC)c2)nc2sc(C(F)(F)F)nn12 (stereo not shown) [Example 0662]

- Physical data: logP: 4.11
Structure (SMILES): CC(C)(NC(=O)/C=C/c1c(-c2ccc(F)cc2Cl)nc2sc(C(F)(F)F)nn12)C(F)(F)F [Example 0915]

- Physical data: log P: 3.37
Structure (SMILES): Cc1ccccc1-c1nc2sc(C(F)(F)F)nn2c1/C=C/C(=O)NCC1CC1 [Example 0237]

- Physical data: log P: 4.18
Structure (SMILES): CCC(NC(=O)C=Cc1c(-c2ccc(F)cc2)nc2sc(C(F)(F)F)nn12)c1ccccc1 (stereo not shown) [Example 0332]

- Physical data: log P: 3.59
Structure (SMILES): O=C(/C=C/c1c(-c2ccccc2F)nc2sc(C(F)(F)F)nn12)N1CCCCC1 [Example 0506]

- Physical data (logP): 4.25
Structure (SMILES): CC(C)C(C)NC(=O)/C=C/c1c(-c2ccc(Cl)cc2)nc2sc(C(F)(F)F)nn12 (stereo not shown) [Example 0023]
